Assay results from ChEMBL document CHEMBL4673222, “Discovery of a Bioactive Inhibitor with a New Scaffold for Cystathionine γ-Lyase” (J Med Chem, 2019).

Molecular target: Cystathionine gamma-lyase (Homo sapiens, UniProt P32929)
Experiment: Inhibition of human CSE using L-Cys as the substrate by tandem well based HTS assay

Sequence of Cystathionine gamma-lyase (P32929 whole entry): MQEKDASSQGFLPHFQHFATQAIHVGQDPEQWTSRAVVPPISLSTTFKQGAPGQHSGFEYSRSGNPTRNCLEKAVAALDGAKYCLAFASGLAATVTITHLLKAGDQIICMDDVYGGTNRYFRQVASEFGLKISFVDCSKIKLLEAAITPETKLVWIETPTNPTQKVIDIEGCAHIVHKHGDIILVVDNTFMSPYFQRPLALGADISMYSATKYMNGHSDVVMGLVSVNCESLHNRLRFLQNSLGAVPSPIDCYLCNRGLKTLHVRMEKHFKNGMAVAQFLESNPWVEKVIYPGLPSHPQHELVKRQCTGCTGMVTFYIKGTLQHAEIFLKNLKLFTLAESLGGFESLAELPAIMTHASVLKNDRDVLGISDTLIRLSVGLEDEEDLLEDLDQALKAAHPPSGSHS

Compound | IC50
NC1=C(Cl)C(=O)c2ncccc2C1=O | < 50 µM
CN1CCN(C2=C(Cl)C(=O)c3ccccc3C2=O)CC1 | < 50 µM
CC1=C/C(=C(\c2cc(C)c(O)c(C(=O)O)c2)c2c(Cl)ccc(S(=O)(=O)O)c2Cl)C=C(C(=O)O)C1=O | 143 µM
Cc1ccc([S+]([O-])c2ccc([N+](=O)[O-])c3nonc23)cc1 (centres undefined) | < 50 µM
NC1=C(Br)C(=O)c2ncccc2C1=O | < 50 µM
O=C1c2ccccc2C(=O)c2sc(Nc3ccc(Cl)cc3)nc21 | < 50 µM
O=C1C(Cl)=C(N2CCN(C3=C(Cl)C(=O)c4ccccc4C3=O)CC2)C(=O)c2ccccc21 | < 50 µM
CC1OC2CC(=O)OC2C2=C1C(=O)c1c(O)cccc1C2=O (centres undefined) | < 50 µM
O=CN/C=C\c1cc(O)ccc1O | < 50 µM
CCNC1=CC(=O)c2ncccc2C1=O | < 50 µM
O=C1C(Cl)=C(NCCCCCCNC2=C(Cl)C(=O)c3ccccc3C2=O)C(=O)c2ccccc21 | < 50 µM
O=C(O)C1=C/C(=C(\c2ccccc2)c2cc(C(=O)O)c(O)c3ccccc23)c2ccccc2C1=O | > 200 µM
COC(=O)C1=CC(=C(c2ccc(O)c(C(=O)OC)c2)c2ccc(O)c(C(=O)OC)c2)C=CC1=O | > 200 µM
O=C1C(Cl)=C(NCCN2CCNCC2)C(=O)c2ccccc21 | < 50 µM
